Patent publication US20070065484A1, “In situ occlusion using natural biodegradable polysaccharides” (priority 2005, published 2007)
Where two headings read alike, the source gives them in different places.

Test system: PC-12 cells
Details: incubation 15 min
Experimental: Cell suspensions were prepared as follows: PC-12 cells (ATCC; passage 5; 75% confluency) were harvested from a T-75 flask using Trypsin-EDTA for 2 minutes. The cells were placed in a 15 mL polyethylene conical (VWR) and centrifuged in F-12k media without serum for 4 minutes at 500 rpm. The cells were counted using a hemocytometer, centrifuged for 4 minutes at 500 rpm, and resuspended at 600,000 cells/mL in sterile PBS.
In order to determine the effect of individual components of the matrix forming compositions on cell viability, solutions A-G were independently mixed with PC-12 cells. 50 uL of cell suspension was added to 350 uL of solutions A-G (Table 4). After a 15 minute incubation, cell viability was assessed using a Live/Dead™ Viability/Cytotoxicity Kit (cat. # L3224; Molecular Probes, Eugene, Oreg.).
The effect of a formed matrix on cell viability was also tested. To form the PD-A matrix, solution #1 (200 mg PD-A, 10 uL TEMED, 20 uL 1N HCl, 470 uL PBS) was added in the amount of 200 uL to a 1.6 ml eppendorf (VWR). Solution #2 (400 mg PD-A, 10 mg Potassium persulfate, 75K PC-12 cells, 500 uL PBS ) was added in the amount of 200 uL to solution #1 in the eppendorf and mixed for 10 seconds. After a 15 minute incubation, cell viability was assessed using the Live/Dead™ Viability/Cytotoxicity Kit.

CN(C)CCN(C)C [TEMED/PBS, N,N,N′,N′-Tetramethylethylenediamine]
Cell viability (%) (0.2% (V/V) in PBS): 10-30%

O=S(=O)([O-])OOS(=O)(=O)[O-].[K+].[K+] [Potassium persulfate]
Cell viability (%) (10 mg/ml in PBS): 90%

O=S(=O)([O-])OOS(=O)(=O)[O-].[Na+].[Na+] [Sodium persulfate]
Cell viability (%) (5 mg/ml in PBS): 90%

N.N.O=S(=O)(O)OOS(=O)(=O)O [Ammonium persulfate]
Cell viability (%) (10 mg/ml in PBS): 90% | Cell viability (%) (120 mg/ml in PBS): 90%
